Data set [1] deals with mouse medulloblastoma cells. The experiment in a line: IC50 / viability (Cell Titer Blue) in mouse medulloblastoma tumorsphere cell line. The note with it: FIGS. 9-11. The class given is cell-based. The protocol: Uptake was calculated by measuring relative fluorescence in two different primary medulloblastoma cell lines. Absorbance measurements were normalized to t=0 with drugs in the well, the drugs were washed out 30 minutes later, and absorbance was measured again. FIG. 9B) IC50 in a mouse medulloblastoma tumorsphere cell line treated with verteporfin or a verteporfin derivative compound (T10, T11, T13, T14, or T15). DMSO was used as a control.
Primary cells from spontaneous mouse medulloblastoma ([…];p53^−/− or FSMO;GFAPcre) and MED311 PDX model were isolated and cultured in serum-free stem cell medium (DMEM/F12, B27, pen/strep, bFGF9 10 nanograms per milliliter (ng/mL)), and EGF (20 ng/mL). Number of self-renewing stem cells in vitro were measured by plating single cells at a clonal density (<1 cell/μL) and counting spheres >100 μM 7 days later. To establish IC50 values, 3000 mouse medulloblastoma cells were plated in 96 wells and treated varying concentrations of verteporfin and new derivatives were synthesized, in triplicate, and viability was measured using Cell Titer Blue assay (Promega, Madison, Wis.) 3 days after drug treatment.
A general note: The colour change of resazurin is a common sign of viable cells or microbes.

Data set [2] can be described thus: Solubility of verteporfin derivative compounds in water and buffer (pH = 2). The data set is classed as physicochemical. The note with it: for Buffer (pH = 2) result, fraction dissolved / Buffer (pH = 2) result: phosphate buffer pH = 2; for Water result: at the amount per volume in mg/mL.

For `C=Cc1c(C)c2cc3nc(cc4[nH]c(cc5nc(cc1[nH]2)C(C)=C5CCC(=O)OCCOCCOCCOC)c(CCC(=O)OCCOCCOCCOC)c4C)[C@@]1(C)C3=CC=C(C(=O)OC)[C@H]1C(=O)OC` [Compound T9, 2-[2-(2-methoxyethoxy)ethoxy]ethyl 3-[(23 S,24R)-14-ethenyl-5-[3-[2-[2-(2-methoxyethoxy)ethoxy]ethoxy]-3-oxo-propyl]-22,23-bis(methoxycarbonyl)-4,10,15,24-tetramethyl-25,26,27,28-tetraazahexacyclo[16.6.1.13,6.18,11.113,16.019,24]octacosa-1,3,5,7,9,11(27),12,14,16,18(25), 19,21-dodecaen-9-yl]propanoate], the “activity / potency compared to VP” value in data set [1] was “decreased solubility and activity”. The “solubility compared to VP” value in data set [2] is on record as “decreased solubility”.

Consider `C=Cc1c(C)c2cc3nc(cc4[nH]c(cc5nc(cc1[nH]2)C(C)=C5CCC(=O)NCCC(=O)N[C@@H](CC(=O)O)C(=O)O)c(CCC(=O)OC)c4C)[C@@]1(C)C3=CC=C(C(=O)OC)[C@H]1C(=O)OC` [Compound T4, (2S)-2-[3-[3-[(23 S,24R)-14-ethenyl-5-(3-methoxy-3-oxopropyl)-22,23-bis(methoxycarbonyl)-4,10,15,24-tetramethyl-25,26,27,28-tetraazahexacyclo[16.6.1.13,6.18,11.113,16.019,24]octacosa-1,3,5,7,9,11(27),12,14,16,18(25), 19,21-dodecaen-9-yl]propanoylamino]propanoylamino]butanedioic acid], for which, in data set [2], the “Buffer (pH = 2) result, fraction dissolved” value (shortened to “Buffer … fraction dissolved”) is given as approximately 80% and the Water result was “insoluble”.

On to `C=Cc1c(C)c2cc3nc(cc4[nH]c(cc5nc(cc1[nH]2)C(C)=C5CCC(=O)N(C)CCN(C)C)c(CCC(=O)OC)c4C)[C@@]1(C)C3=CC=C(C(=O)OC)[C@H]1C(=O)OC` [Compound T14, Methyl 3-[(23S,24R)-14-ethenyl-9-[3-[2-(dimethylamino)ethyl-methyl-amino]-3-oxo-propyl]-22,23-bis(methoxycarbonyl)-4,10,15,24-tetramethyl-25,26,27,28-tetraazahexacyclo[16.6.1.13,6.18,11.113,16.019,24]octacosa-1,3,5,7,9,11(27), 12,14,16,18(25), 19,21-dodecaen-5-yl]propanoate], for which, in data set [2], the “Buffer (pH = 2) result” value is “soluble” and the Water result is recorded as “insoluble”.

As for `C=Cc1c(C)c2cc3nc(cc4[nH]c(cc5nc(cc1[nH]2)C(C)=C5CCC(=O)NCCCC[C@H](N)C(=O)O)c(CCC(=O)NCCCC[C@H](N)C(=O)O)c4C)[C@@]1(C)C3=CC=C(C(=O)OC)[C@H]1C(=O)OC` [Compound T7, (2S)-2-amino-6-[3-[(23 S,24R)-14-ethenyl-5-[3-[[(5 S)-5-amino-5-carboxy-pentyl]amino]-3-oxo-propyl]-22,23-bis(methoxycarbonyl)-4,10,15,24-tetramethyl-25,26,27,28-tetraazahexacyclo[16.6.1.13,6.18,11.113,16.019,24]octacosa-1,3,5,7,9,11(27),12,14,16,18(25), 19,21-dodecaen-9-yl]propanoylamino]hexanoic acid], in data set [2], the “Buffer (pH = 2) result” value is recorded as “soluble” and the Water result is “soluble”.

Turning to `C=Cc1c(C)c2cc3nc(cc4[nH]c(cc5nc(cc1[nH]2)C(C)=C5CCC(=O)N(C)CCN(C)C)c(CCC(=O)N(C)CCN(C)C)c4C)[C@@]1(C)C3=CC=C(C(=O)OC)[C@H]1C(=O)OC` [Compound T15, N-[2-(dimethylamino)ethyl]-3-[(23 S,24R)-14-ethenyl-5-[3-[2-(dimethylamino)ethyl-methyl-amino]-3-oxo-propyl]-22,23-bis(methoxycarbonyl)-4,10,15,24-tetramethyl-25,26,27,28-tetraazahexacyclo[16.6.1.13,6.18,11.113,16.019,24]octacosa-1,3,5,7,9,11(27), 12,14,16,18(25),19,21-dodecaen-9-yl]-N-methyl-propanamide], in data set [2], the “Buffer (pH = 2) result” value was “soluble” and the Water result is on record as “soluble”.

Turning to `C=Cc1c(C)c2cc3nc(cc4[nH]c(cc5nc(cc1[nH]2)C(C)=C5CCC(=O)N[C@@H](CC(=O)O)C(=O)O)c(CCC(=O)N[C@@H](CC(=O)O)C(=O)O)c4C)[C@@]1(C)C3=CC=C(C(=O)OC)[C@H]1C(=O)OC` [Compound T3, (2S)-2-[3-[(23 S,24R)-14-ethenyl-5-[3-[[(1 S)-1,2-dicarboxyethyl]amino]-3-oxo-propyl]-22,23-bis(methoxycarbonyl)-4,10,15,24-tetramethyl-25,26,27,28-tetraazahexacyclo[16.6.1.13,6.18,11.113,16.019,24]octacosa-1,3,5,7,9,11(27),12,14,16,18(25), 19,21-dodecaen-9-yl]propanoylamino]butanedioic acid], in data set [2], the “Buffer (pH = 2) result” value was “insoluble” and the Water result is given as “insoluble”.

Consider `C=Cc1c(C)c2cc3nc(cc4[nH]c(cc5nc(cc1[nH]2)C(C)=C5CCC(=O)OCCOCCOCCOC)c(CCC(=O)OC)c4C)[C@@]1(C)C3=CC=C(C(=O)OC)[C@H]1C(=O)OC` [Compound T8, Methyl 3-[(23S,24R)-14-ethenyl-9-[3-[2-[2-(2-methoxyethoxy)ethoxy]ethoxy]-3-oxo-propyl]-22,23-bis(methoxycarbonyl)-4,10,15,24-tetramethyl-25,26,27,28-tetraazahexacyclo[16.6.1.13,6.18,11.113,16.019,24]octacosa-1,3,5,7,9,11(27),12,14,16,18(25), 19,21-dodecaen-5-yl]propanoate], for which, in data set [2], the “Buffer (pH = 2) result” value was “insoluble” and the Water result is “insoluble”.

As for `C=Cc1c(C)c2cc3nc(cc4[nH]c(cc5nc(cc1[nH]2)C(C)=C5CCC(=O)NCCN(C)C)c(CCC(=O)NCCN(C)C)c4C)[C@@]1(C)C3=CC=C(C(=O)OC)[C@H]1C(=O)OC` [Compound T13, N-[2-(dimethylamino)ethyl]-3-[(23 S,24R)-14-ethenyl-5-[3-[2-(dimethylamino)ethylamino]-3-oxo-propyl]-22,23-bis(methoxycarbonyl)-4,10,15,24-tetramethyl-25,26,27,28-tetraazahexacyclo[16.6.1.13,6.18,11.113,16.019,24]octacosa-1,3,5,7,9,11(27), 12,14,16,18(25), 19,21-dodecaen-9-yl]propanamide], in data set [1], the “activity / potency compared to VP” value is “more soluble and potent than VP”. Moreover, the “solubility compared to VP” value in data set [2] is “more soluble”.

In the case of `C=Cc1c(C)c2cc3nc(cc4[nH]c(cc5nc(cc1[nH]2)C(C)=C5CCC(=O)OCCOCCOCCOCCOCCOCCOCCOC)c(CCC(=O)OC)c4C)[C@@]1(C)C3=CC=C(C(=O)OC)[C@H]1C(=O)OC` [Compound T10, Methyl 3-[(23S,24R)-14-ethenyl-9-[3-[2-[2-[2-[2-[2-[2-(2-methoxyethoxy)ethoxy]ethoxy]ethoxy]ethoxy]ethoxy]ethoxy]-3-oxo-propyl]-22,23-bis(methoxycarbonyl)-4,10,15,24-tetramethyl-25,26,27,28-tetraazahexacyclo[16.6.1.13,6.18,11.113,16.019,24]octacosa-1,3,5,7,9,11(27),12,14,16,18(25), 19,21-dodecaen-5-yl]propanoate], in data set [2], the “Buffer (pH = 2) result” value is reported as “insoluble” and the Water result is “insoluble”.

For the compound `C=Cc1c(C)c2cc3nc(cc4[nH]c(cc5nc(cc1[nH]2)C(C)=C5CCC(=O)NCCN(C)C)c(CCC(=O)OC)c4C)[C@@]1(C)C3=CC=C(C(=O)OC)[C@H]1C(=O)OC` [Compound T11, Methyl 3-[(23 S,24R)-14-ethenyl-9-[3-[2-(dimethylamino)ethylamino]-3-oxo-propyl]-22,23-bis(methoxycarbonyl)-4,10,15,24-tetramethyl-25,26,27,28-tetraazahexacyclo[16.6.1.13,6.18,11.113,16.019,24]octacosa-1,3,5,7,9,11(27), 12,14,16,18(25), 19,21-dodecaen-5-yl]propanoate], in data set [2], the “Buffer … fraction dissolved” value was approximately 70% and the Water result is recorded as “insoluble”.

On to `C=Cc1c(C)c2cc3nc(cc4[nH]c(cc5nc(cc1[nH]2)C(C)=C5CCC(=O)N[C@@H](CC(=O)O)C(=O)O)c(CCC(=O)OC)c4C)[C@@]1(C)C3=CC=C(C(=O)OC)[C@H]1C(=O)OC` [Compound T1, (2S)-2-[3-[(23 S,24R)-14-ethenyl-5-(3-methoxy-3-oxopropyl)-22,23-bis(methoxycarbonyl)-4,10,15,24-tetramethyl-25,26,27,28-tetraazahexacyclo[16.6.1.13,6.18,11.113,16.019,24]octacosa-1,3,5,7,9,11(27),12,14,16,18(25), 19,21-dodecaen-9-yl]propanoylamino]butanedioic acid], for which, in data set [2], the “Buffer … fraction dissolved” value is given as approximately 20% and the Water result is “insoluble”.

With `C=Cc1c(C)c2cc3nc(cc4[nH]c(cc5nc(cc1[nH]2)C(C)=C5CCC(=O)NCCCC[C@H](N)C(=O)O)c(CCC(=O)OC)c4C)[C@@]1(C)C3=CC=C(C(=O)OC)[C@H]1C(=O)OC` [Compound T5, (2S)-2-amino-6-[3-[(23 S,24R)-14-ethenyl-5-(3-methoxy-3-oxopropyl)-22,23-bis(methoxycarbonyl)-4,10,15,24-tetramethyl-25,26,27,28-tetraazahexacyclo[16.6.1.13,6.18,11.113,16.019,24]octacosa-1,3,5,7,9,11(27),12,14,16,18(25), 19,21-dodecaen-9-yl]propanoylamino]hexanoic acid], in data set [2], the “Buffer (pH = 2) result” value is “soluble” and the Water result was “soluble”.

The values above are taken from patent US11331304B2, “YAP1 inhibitors and methods” (The Jackson Laboratory, priority 2016, dated 2022).
